Data on three compounds can be found in the supplement of paper PMC8253809.

Assay [1] deals with HGGX42 (H3.3 G34R paediatric high-grade glioma line). As to the kind of experiment: area under dose-response curve of % growth inhibition (log2 RLU vs DMSO / staurosporine), 1e-11 to 1e-4 M (% x log10 M); higher = more growth inhibition. In outline:
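Cells were exposed in triplicate for 7 days (iAstro: 3 days) at 37 °C, 5% CO2 to a 10-point series of threefold dilutions with a mean top concentration of 35 μM. These were patient-derived pHGG/DIPG lines plus astrocytes, grown on 384-well plates coated with 1% Geltrex. Readout was CellTiter-Glo luminescence, log2-transformed and set per plate to % activity between solvent and positive controls, from which area under the curve was derived by trapezoid rule on a log-logistic fit or, failing that, a smoothing spline.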

The test system of assay [2] is HGGX42. In words: maximal growth inhibition (yFin) relative to DMSO / staurosporine; higher = more efficacious. In outline:
(§1)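 EC50 and maximal response (yFin) were derived from the lowest-AICc fit, either three- or four-parameter log-logistic. The data were pooled CellTiter-Glo luminescence values, log2-transformed and normalised per plate to % activity between negative (solvent) and positive controls. Patient-derived pHGG/DIPG cell lines and astrocyte controls on 1% Geltrex-coated 384-well plates received a 10-point threefold dilution series (mean top concentration 35 μM) by pin tool, in triplicate, for 7 days (iAstro 3 days) at 37 °C, 5% CO2.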

The next assay concerns DIPGX37 (H3.3 K27M diffuse intrinsic pontine glioma line). The description is as above. The gist of the method: as §1
The subject of a further assay is HGGX2 (paediatric high-grade glioma line). The description is as above. In outline:
as §1

The test system of a further assay is SUDIPGXIX (diffuse intrinsic pontine glioma line)
The assay is described as above. The gist of the method: as §1

The next assay has as its system SUDIPGXIII (diffuse intrinsic pontine glioma line)
The assay is described as above. The gist of the method:
as §1

Another assay has as its system SUDIPGXVII (diffuse intrinsic pontine glioma line)
Described as above. In outline: as §1

The test system of the next assay is DIPGX29 (H3.3 K27M diffuse intrinsic pontine glioma line). The assay is described as above. The gist of the method: as §1
The next assay relates to DIPGX7 (H3.3 K27M diffuse intrinsic pontine glioma line). The description is as above. The gist of the method:
as §1

In a further assay the test system is iAstro (astrocyte control). Described as above. The gist of the method: as §1
In the next assay the test system is HABS (astrocyte control). Described as above. In outline:
as §1

The next assay deals with SUDIPGXXI (diffuse intrinsic pontine glioma line)
The assay is described as above. The gist of the method: as §1

The test system of another assay is SUDIPGIV (diffuse intrinsic pontine glioma line)
Described as above. The gist of the method:
as §1

A further assay deals with HGGX39 (paediatric high-grade glioma line). The description is as above. In outline:
as §1

In another assay the test system is SUDIPGVI (diffuse intrinsic pontine glioma line)
Described as above. The gist of the method: as §1

The subject of the next assay is HGGX6 (H3.3 G34R paediatric high-grade glioma line). The assay is described as above. The gist of the method:
as §1

In another assay the test system is DIPGX9 (diffuse intrinsic pontine glioma line). Described as above. In outline:
as §1

`O=C(Nc1ccccc1-c1cn2c(CN3CCNCC3)csc2n1)c1cnc2ccccc2n1` [SRT1720]: in the assay on HGGX42 [1], the “area under dose-response curve” value was found to be 152. In addition, the maximal growth inhibition in the assay with HGGX42 [2] is 102%; with DIPGX37, 94.6%; with HGGX2, 99.1%; with SUDIPGXIX, 104%; with SUDIPGXIII, 94.6%; with SUDIPGXVII, 99.2%. In addition, the maximal growth inhibition in the assay on DIPGX29 was 94.6%; in the assay with DIPGX7 it was 102%; in the assay on iAstro, 91.6%; in the assay with HABS it was 98.3%; in the assay with SUDIPGXXI it was 105%; in the assay on SUDIPGIV it was 104%. Moreover, the maximal growth inhibition in the assay on HGGX39 worked out at 95.5%; with SUDIPGVI, 93.9%; with HGGX6 it was 90.5%; with DIPGX9 it was 103%.
`CCN(CC)CCNC(=O)c1c(C)[nH]c(/C=C2\C(=O)Nc3ccc(F)cc32)c1C` [SUNITINIB]: the “area under dose-response curve” value in the assay with HGGX42 [1] was found to be 193. Further, the maximal growth inhibition in the assay with HGGX42 [2] was 112%; in the assay with DIPGX37, 101%; with HGGX2, 108%; in the assay on SUDIPGXIX, 129%; in the assay on SUDIPGXIII, 113%; in the assay on SUDIPGXVII it was 120%. Further, the maximal growth inhibition was 103% in the assay on DIPGX29; 116% with DIPGX7; 97.5% in the assay on iAstro; 122% in the assay with HABS; 115% with SUDIPGXXI; 119% in the assay on SUDIPGIV. Further, the maximal growth inhibition with HGGX39 was determined as 105%; in the assay with SUDIPGVI it was 108%; in the assay with HGGX6, 107%; in the assay with DIPGX9 it was 117%.
In the case of `CN(C)C/C=C/C(=O)Nc1ccc(C(=O)Nc2cccc(Nc3ncc(Cl)c(-c4c[nH]c5ccccc45)n3)c2)cc1` [THZ1], the “area under dose-response curve” value in the assay with HGGX42 [1] came to 360. The maximal growth inhibition is 110% in the assay with HGGX42 [2]; 81.3% with DIPGX37; 97.5% with HGGX2; 84.4% in the assay with SUDIPGXIX; 85% in the assay on SUDIPGXIII; 87.2% with SUDIPGXVII. The maximal growth inhibition in the assay on DIPGX29 is 87.4%; in the assay on DIPGX7, 88.6%; in the assay on iAstro it was 99.1%; in the assay with HABS it was 100%; in the assay on SUDIPGXXI, 107%; in the assay with SUDIPGIV, 87.4%. In addition, the maximal growth inhibition with HGGX39 is 86.2%; in the assay on SUDIPGVI it was 85.3%; in the assay on HGGX6 it was 81.5%; in the assay on DIPGX9 it was 88.7%.
